Measured values: patent US20250304717A1, “CAMPTOTHECIN DERIVATIVE AND LIGAND-DRUG CONJUGATE” (HAINAN SIMCERE ZAIMING PHARMACEUTICAL CO., LTD., priority 2022, published 2025)
Read-outs that look alike come from different tables or passages of the source.

How the values were obtained:
SKBR3 cells = assay: Anti-tumor cell proliferation activity of compound of formula (D-H), Cell-Titer Glo, SKBR3; format: cell-based, human; details: Homo sapiens, SK-BR-3, 120 h, read-out: SKBR3 Antiproliferative activity IC50 (nM), SKBR3 cells, 5 days
Experimental: (§1) Cell culture: HCT116 cells and SKBR3 cells were cultured with a McCoy's 5a medium containing 10% fetal bovine serum+1% penicillin-streptomycin at 37° C. with 5% CO2, and OVCAR3 cells were cultured with a 1640 medium containing 20% fetal bovine serum+2 μg/mL bovine insulin+1% penicillin-streptomycin at 37° C. with 5% CO2. Cells at logarithmic growth phase were available for the experiment.
(§2) Cell proliferation activity test: The Cell-Titer Glo reagent was used to test the compound for inhibitory activity on proliferation of the three cell strains HCT116, SKBR3, and OVCAR3. HCT116 cells (1500 per well), SKBR3 cells (3000 per well), and OVCAR3 cells (5000 per well) were seeded on 96-well plates and incubated at 37° C. with 5% CO2 for 24 h. After a solution of the compound to be detected was added (the compound was dissolved in DMSO so that the compound concentration was 1 mM, then the compound was diluted to […] in DMSO at 9 concentrations in a 3-fold dilution, and 10 μL of the prepared compound solution was transferred to the 96-well plate so that the final concentration was 0-300 nM), the mixture was incubated at 37° C. with 5% CO2. HCT116 cells were cultured for 3 days, and SKBR3 cells and OVCAR3 cells were cultured for 5 days. The Cell-Titer Glo reagent was added and the cell activity was measured.
(§3) A negative control group and a positive control group were respectively used as Bottom and Top. The negative control group was not added with cells, only added with the culture medium in the same volume, and other operations were consistent with those of the experimental group. The positive control group was not added with the test drug, and other operations were consistent with those of the experimental group.
(§4) Data analysis: % Inhibition was calculated, and compound IC50 was fitted.
(§5) % Inhibition=1-100%×(Signal−Bottom)/(Top−Bottom).
(§6) Signal referred to the signal value of the experimental group, Bottom referred to the average signal value of the negative control group, and Top referred to the average signal value of the positive control group.

HCT116 cells = assay: Anti-tumor cell proliferation activity of compound of formula (D-H), Cell-Titer Glo, HCT116; format: cell-based; details: Homo sapiens, HCT-116, 72 h
Experimental: as §1, §2, §3, §4, §5, §6

OVCAR3 cells = assay: Anti-tumor cell proliferation activity of compound of formula (D-H), Cell-Titer Glo, OVCAR3; format: cell-based; details: Homo sapiens, OVCAR-3, 120 h
Experimental: as §1, §2, §3, §4, §5, §6

[1] = read-out: HCT116 Antiproliferative activity IC50 (nM), HCT116 cells, 3 days
[2] = read-out: OVCAR3 Antiproliferative activity IC50 (nM)
[3] = HCT116 cells, 3 days, read-out: HCT116 Antiproliferative activity IC50

`CC[C@@]1(O)C(=O)OCc2c1cc1n(c2=O)Cc2c-1nc1cc3c(cc1c2CNC(=O)CO)OCCO3` [Compound 1, (S)-N-((8-ethyl-8-hydroxy-9,12-dioxo-2,3,8,9,12,14-hexahydro-11H-[1,4]dioxino[2,3-g]pyrano[3′,4′:6,7]indolizino[1,2-b]quinolin-15-yl)methyl)-2-hydroxyacetamide] was tested. Which IC50 (SKBR3 cells) did it give?
The IC50 was 8.5 nM.

`CC[C@@]1(O)C(=O)OCc2c1cc1n(c2=O)Cc2c-1nc1cc(F)c(Cl)cc1c2CNC(=O)CO` [Compound 3, (S)-N-((9-chloro-4-ethyl-8-fluoro-4-hydroxy-3,14-dioxo-3,4,12,14-tetrahydro-1H-pyrano[3′,4′:6,7]indolizino[1,2-b]quinolin-11-yl)methyl)-2-hydroxyacetamide] was tested. Which IC50 (SKBR3 cells) did it give?
The IC50 was 3.6 nM.

For `CC[C@@]1(O)C(=O)OCc2c1cc1n(c2=O)Cc2c-1nc1cc(F)c(Br)cc1c2CNC(=O)CO` [Compound 5, (S)-N-((9-bromo-4-ethyl-8-fluoro-4-hydroxy-3,14-dioxo-3,4,12,14-tetrahydro-1H-pyrano[3′,4′:6,7]indolizino[1,2-b]quinolin-11-yl)methyl)-2-hydroxyacetamide], which IC50 (SKBR3 cells) is on record?
Its IC50 is 3.3 nM.

Which IC50 (HCT116 cells; [1]) does the source give for `CC[C@@]1(O)C(=O)OCc2c1cc1n(c2=O)Cc2c-1nc1ccc3c(c1c2CNC(=O)CO)CCC3` [Compound 7, (S)-N-((8-ethyl-8-hydroxy-9,12-dioxo-2,3,8,9,12,14-hexahydro-1H,11H-cyclopenta[f]pyrano[3′,4′:6,7]indolizino[1,2-b]quinolin-15-yl)methyl)-2-hydroxyacetamide] here?
The IC50 was 10 to 100 nM.

How did the IC50 (HCT116 cells; [1]) turn out when `CC[C@@]1(O)C(=O)OCc2c1cc1n(c2=O)Cc2c-1nc1cc(F)c(C)cc1c2CNC(=O)C1(O)CC1` [Compound 9, (S)-N-((4-ethyl-8-fluoro-4-hydroxy-9-methyl-3,14-dioxo-3,4,12,14-tetrahydro-1H-pyrano[3′,4′:6,7]indolizino[1,2-b]quinolin-11-yl)methyl)-1-hydroxycyclopropane-1-carboxamide] was run?
Its IC50 is less than 10 nM.

What about the IC50 (SKBR3 cells) of the same molecule?
The IC50 was 2.1 nM.

Which results are given for `CC[C@@]1(O)C(=O)OCc2c1cc1n(c2=O)Cc2c-1nc1cc(Cl)c(C)cc1c2CNC(=O)C1(O)CC1` [Compound 10, (S)-N-((8-chloro-4-ethyl-4-hydroxy-9-methyl-3,14-dioxo-3,4,12,14-tetrahydro-1H-pyrano[3′,4′:6,7]indolizino[1,2-b]quinolin-11-yl)methyl)-1-hydroxycyclopropane-1-carboxamide]?
IC50 (HCT116 cells; [1]): < 10 nM; IC50 (SKBR3 cells): 2.3 nM

Which IC50 (SKBR3 cells) does the source give for `CC[C@@]1(O)C(=O)OCc2c1cc1n(c2=O)Cc2c-1nc1cc(Cl)c(C)cc1c2CNC(=O)C(O)C1CC1` (stereo partly drawn) [Compound 11, N—(((S)-8-chloro-4-ethyl-4-hydroxy-9-methyl-3,14-dioxo-3,4,12,14-tetrahydro-1H-pyrano[3′,4′:6,7]indolizino[1,2-b]quinolin-11-yl)methyl)-2-cyclopropyl-2-hydroxyacetamide] here?
Its IC50 is 3.2 nM.

For `CC[C@@]1(O)C(=O)OCc2c1cc1n(c2=O)Cc2c-1nc1ccc3c(c1c2CNC(=O)C(O)C1CC1)CCC3` (stereo partly drawn) [Compound 13, 2-cyclopropyl-N—(((S)-8-ethyl-8-hydroxy-9,12-dioxo-2,3,8,9,12,14-hexahydro-1H,11H-cyclopenta[f]pyrano[3′,4′:6,7]indolizino[1,2-b]quinolin-15-yl)methyl)-2-hydroxyacetamide], which IC50 (HCT116 cells; [1]) is on record?
The IC50 was less than 10 nM.

And the IC50 (OVCAR3 cells; [2])?
Its IC50 is 0.7 nM.

`CC[C@@]1(O)C(=O)OCc2c1cc1n(c2=O)Cc2c-1nc1cnc(Br)cc1c2CNC(=O)CO` [Compound 15, (S)-N-((9-bromo-4-ethyl-4-hydroxy-3,14-dioxo-3,4,12,14-tetrahydro-1H-pyrano[3′,4′:6,7]indolizino[1,2-b][1,7]naphthyridin-11-yl)methyl)-2-hydroxyacetamide] was tested. Which IC50 (HCT116 cells; [1]) did it give?
Its IC50 is 10 to 100 nM.

`CC[C@@]1(O)C(=O)OCc2c1cc1n(c2=O)Cc2c-1nc1cc(F)c(Cl)c(F)c1c2CNC(=O)C1(O)CC1` [Compound 16, (S)-N-((9-chloro-4-ethyl-8,10-difluoro-4-hydroxy-3,14-dioxo-3,4,12,14-tetrahydro-1H-pyrano[3′,4′:6,7]indolizino[1,2-b]quinolin-11-yl)methyl)-1-hydroxycyclopropane-1-carboxamide] was tested. Which IC50 (HCT116 cells; [1]) did it give?
Its IC50 is less than 10 nM.

And the IC50 (SKBR3 cells)?
The IC50 was 2.3 nM.

For `CC[C@@]1(O)C(=O)OCc2c1cc1n(c2=O)Cc2c-1nc1cc(Cl)c(C)cc1c2CNC(=O)C(C)(C)O` [Compound 17, (S)-N-((8-chloro-4-ethyl-4-hydroxy-9-methyl-3,14-dioxo-3,4,12,14-tetrahydro-1H-pyrano[3′,4′:6,7]indolizino[1,2-b]quinolin-11-yl)methyl)-2-hydroxy-2-methylpropanamide], which IC50 (HCT116 cells; [1]) is on record?
Its IC50 is less than 10 nM.

What about the IC50 (SKBR3 cells) of the same molecule?
The IC50 was 2.7 nM.

How did the IC50 (HCT116 cells; [1]) turn out when `CC[C@@]1(O)C(=O)OCc2c1cc1n(c2=O)Cc2c-1nc1cc(Cl)c(C)cc1c2CNC(=O)C(O)C(C)C` (stereo partly drawn) [Compound 18, N—(((S)-8-chloro-4-ethyl-4-hydroxy-9-methyl-3,14-dioxo-3,4,12,14-tetrahydro-1H-pyrano[3′,4′:6,7]indolizino[1,2-b]quinolin-11-yl)methyl)-2-hydroxy-3-methylbutanamide] was run?
Its IC50 is 10 to 100 nM.

And the IC50 (SKBR3 cells)?
The IC50 was 5.1 nM.

`[2H]C1([2H])Oc2cc3nc4c(c(CNC(=O)C(O)C5CC5)c3cc2O1)Cn1c-4cc2c(c1=O)COC(=O)[C@]2(O)CC` (stereo partly drawn) [Compound 19, 2-cyclopropyl-N—(((S)-7-ethyl-7-hydroxy-8,11-dioxo-7,8,11,13-tetrahydro-10H-[1,3]dioxolo[4,5-g]pyrano[3′,4′:6,7]indolizino[1,2-b]quinolin-14-yl-2,2-d2)methyl)-2-hydroxyacetamide] was tested. Which IC50 (HCT116 cells; [1]) did it give?
Its IC50 is less than 10 nM.

How did the IC50 (HCT116 cells; [1]) turn out when `[2H]C1([2H])Oc2cc3nc4c(c(CNC(=O)[C@@H](O)C5CC5)c3cc2O1)Cn1c-4cc2c(c1=O)COC(=O)[C@]2(O)CC` [Compound 19-P1, (S)-2-cyclopropyl-N—(((S)-7-ethyl-7-hydroxy-8,11-dioxo-7,8,11,13-tetrahydro-10H-[1,3]dioxolo[14,5-g]pyrano[3′,4′:6,7]indolizino[1,2-b]quinolin-14-yl-2,2-d2)methyl)-2-hydroxyacetamide] was run?
Its IC50 is less than 10 nM.

What about the IC50 (OVCAR3 cells; [2]) of the same molecule?
Its IC50 is 0.6 nM.

With `[2H]C1([2H])Oc2cc3nc4c(c(CNC(=O)[C@@H](O)C5CC5)c3cc2O1)Cn1c-4cc2c(c1=O)COC(=O)[C@]2(O)CC` [Compound 19-P2, 2-cyclopropyl-N—(((S)-7-ethyl-7-hydroxy-8,11-dioxo-7,8,11,13-tetrahydro-10H-[1,3]dioxolo[4,5-g]pyrano[3′,4′:6,7]indolizino[1,2-b]quinolin-14-yl-2,2-d2)methyl)-2-hydroxyacetamide] as the molecule, how does the IC50 (HCT116 cells; [3]) read?
Its IC50 is less than 10 nM.

What about the IC50 (OVCAR3 cells; OVCAR3 cells, 5 days, read-out: OVCAR3 Antiproliferative activity IC50) of the same molecule?
Its IC50 is 1 nM.

`CC[C@@]1(O)C(=O)OCc2c1cc1n(c2=O)Cc2c-1nc1ccc3occc3c1c2CNC(=O)CO` [Compound 20, (S)-N-((8-ethyl-8-hydroxy-9,12-dioxo-8,9,12,14-tetrahydro-11H-furo[3,2-f]pyrano [3′,4′:6,7]indolizino[1,2-b]quinolin-15-yl)methyl)-2-hydroxyacetamide] was tested. Which IC50 (HCT116 cells; [1]) did it give?
Its IC50 is 10 to 100 nM.

What about the IC50 (SKBR3 cells) of the same molecule?
Its IC50 is 10.5 nM.

Which IC50 (HCT116 cells; [1]) does the source give for `CC[C@@]1(O)C(=O)OCc2c1cc1n(c2=O)Cc2c-1nc1cc(Cl)c3occc3c1c2CNC(=O)CO` [Compound 27, (S)-N-((4-chloro-8-ethyl-8-hydroxy-9,12-dioxo-8,9,12,14-tetrahydro-11H-furo[3,2-f]pyrano[3′,4′:6,7]indolizino[1,2-b]quinolin-15-yl)methyl)-2-hydroxyacetamide] here?
Its IC50 is 10 to 100 nM.

How did the IC50 (HCT116 cells; [1]) turn out when `CC[C@@]1(O)C(=O)OCc2c1cc1n(c2=O)Cc2c-1nc1cc(Cl)c3occc3c1c2CNC(=O)C(O)C1CC1` (stereo partly drawn) [Compound 28, N—(((S)-4-chloro-8-ethyl-8-hydroxy-9,12-dioxo-8,9,12,14-tetrahydro-11H-furo[3,2-f]pyrano[3′,4′:6,7]indolizino[1,2-b]quinolin-15-yl)methyl)-2-cyclopropyl-2-hydroxyacetamide] was run?
Its IC50 is less than 10 nM.

For `CC[C@@]1(O)C(=O)OCc2c1cc1n(c2=O)Cc2c-1nc1cc3c(c([N+](=O)[O-])c1c2CNC(=O)C(O)C1CC1)OCO3` (stereo partly drawn) [Compound 29, 2-cyclopropyl-N—(((S)-7-ethyl-7-hydroxy-15-nitro-8,11-dioxo-7,8,11,13-tetrahydro-10H-[1,3]dioxolo[4,5-g]pyrano[3′,4′:6,7]indolizino[1,2-b]quinolin-14-yl)methyl)-2-hydroxyacetamide], which IC50 (HCT116 cells; [1]) is on record?
Its IC50 is 10 to 100 nM.

With `CC[C@@]1(O)C(=O)OCc2c1cc1n(c2=O)Cc2c-1nc1cc3c(c(F)c1c2CNC(=O)[C@@H](O)C1CC1)OCO3` [Compound 35-P1, 2-cyclopropyl-N-(((S)-7-ethyl-15-fluoro-7-hydroxy-8,11-dioxo-7,8,11,13-tetrahydro-10H-[1,3]dioxolo[4,5-g]pyrano[3′,4′:6,7]indolizino[1,2-b]quinolin-14-yl)methyl)-2-hydroxyacetamide] as the molecule, how does the IC50 (HCT116 cells; [3]) read?
The IC50 was less than 10 nM.
